Test: Retention time of the compound in human liver microsomes after 5 mins in presence of NADPH by LC-MS/MS analysis
Assay type: ADME, Microsome

Retention_time [min]	Compound
3.21	CSc1cc(C)nc(SC)c1NC(=O)CN1CCN(CCSc2nc3cc(O)ccc3[nH]2)CC1
3.37	CSc1nc(C)cc([S+](C)[O-])c1NC(=O)CN1CCN(CCSc2nc3ccccc3[nH]2)CC1 (configuration not stated)
